This assay relates to GM3. Nature of the assay: GM3 Elisa Assay (B16-FO cells). The following applies: 48 h, Table 3, 2 days with compound, read-out: IC50_uM_Mean. The assay is classed as cell-based. As to the method: B16-FO cells from ATCC (American Tissue Culture Collection) were grown in DMEM media (ATCC) with 10% Fetal Bovine Serum (Hyclone) and Pen/Step/Glutamine (Biowhittaker). 4000 cells per well were plated on collagen coated plates (BD) and allowed to attach for 6 hours in an incubator (37 degrees, 5% CO2). After 6 hours the compounds and controls were added to the wells, the plates mixed and returned to the incubator for 2 days. Day of assay the cells were fixed for 20 minutes with 1% formaldehyde and then washed with Tris Buffered Saline (TBS) 3 times, 150 μl of TBS was left in the wells and 50 μl of goat serum (Invitrogen) was added, the plates mixed and incubated for 1 hour at room temperature. The plates were flicked and the cells incubated with the monoclonal Antibody to GM3 (NeuAc) (Cosmo) for 45 minutes as room temperature. The plates were then washed 3 times with TBS, leaving 150 μl of TBS in the wells and Peroxidase AffinPure F (ab′) 2 frag Gt Anti-mouse IgM, μ Chain Specific (Jackson Immno Research) was added in 50 μl, the plates mixed and incubated for 45 minutes at room temperature. The plates were washed 3 times with TBS, flicked and blotted and 100 μl of Quantablu (Pierce) was added to the wells and incubated for 1 hour then read on a Fluorometer at Ex 325 and Em 420. The data was then analyzed using standard programs.

Take `O=C(CCCc1nc(C2CC2)no1)N[C@H](CN1CCCC1)[C@H](O)c1ccc2c(c1)OCCO2` [Compound 648]: the IC50 is 1000 to 3000 nM.

On to `Cc1noc(CCCCC(=O)N[C@H](CN2CCCC2)[C@H](O)c2ccc3c(c2)OCCO3)n1` [Compound 649], for which the IC50 was in the range of 3000 to 10000 nM.

The values above are taken from US9481671B2, “Glucosylceramide synthase inhibition for the treatment of collapsing glomerulopathy and other glomerular disease” (Genzyme Corporation, priority 2008, dated 2016).
